Test results from patent US8071616B2, “Pyridine, quinoline, and isoquinoline N-oxides as kinase inhibitors” (Bayer Healthcare LLC, priority 2002, dated 2011).

melting point: 232 to 234 °C
SMILES: CNC(=O)c1cc(Oc2ccc(NC(=O)Nc3ccc(Cl)c(C(F)(F)F)c3)cc2)cc[n+]1[O-] [Experimental Synthesis 1, N-[4-chloro-3-(trifluoromethyl)phenyl]-N′-{4-[2-(N-methylcarbamoyl)-1-oxo-(4-pyridyloxy)]phenyl}urea]
